The record followed here is publication PMC6720883, “In Vitro Inhibitory Effects of APINACA on Human Major Cytochrome P450, UDP-Glucuronosyltransferase Enzymes, and Drug Transporters” (Molecules, 2019).

Like-named read-outs stand apart in the source and are kept apart here.

One series has as its target T1, OATP1B1 (Homo sapiens, UniProt Q9Y6L6).
T1 construct: host or cells: HEK293 (transient overexpression)
T1 sequence (Q9Y6L6 1-691): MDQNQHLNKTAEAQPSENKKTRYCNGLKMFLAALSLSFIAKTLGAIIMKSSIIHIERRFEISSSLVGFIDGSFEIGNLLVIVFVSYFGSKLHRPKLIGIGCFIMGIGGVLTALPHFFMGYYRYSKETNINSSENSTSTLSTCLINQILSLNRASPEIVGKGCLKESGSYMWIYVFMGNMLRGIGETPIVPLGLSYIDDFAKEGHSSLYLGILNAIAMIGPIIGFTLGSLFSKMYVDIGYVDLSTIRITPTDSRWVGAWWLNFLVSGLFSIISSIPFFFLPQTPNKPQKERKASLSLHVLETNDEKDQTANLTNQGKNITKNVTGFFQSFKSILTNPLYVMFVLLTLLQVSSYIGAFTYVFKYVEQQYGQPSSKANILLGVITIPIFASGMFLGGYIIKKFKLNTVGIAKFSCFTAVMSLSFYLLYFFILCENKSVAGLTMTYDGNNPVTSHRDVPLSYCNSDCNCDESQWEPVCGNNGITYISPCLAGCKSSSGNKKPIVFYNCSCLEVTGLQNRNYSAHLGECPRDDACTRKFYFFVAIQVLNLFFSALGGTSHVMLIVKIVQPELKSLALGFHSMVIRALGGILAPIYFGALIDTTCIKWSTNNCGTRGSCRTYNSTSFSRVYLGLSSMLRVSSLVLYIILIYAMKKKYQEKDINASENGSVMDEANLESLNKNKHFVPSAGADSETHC
Put plainly: Uptake of [3-H]estrone-3-sulfate in HEK293-OATP1B1 cells. It counts as in vitro ADME. As to the method: To examine the effects of APINACA and typical inhibitors on transporter activity, the uptake of a probe substrate into HEK293 cells overexpressing the respective solute carrier transporters was measured in the presence of APINACA (final concentrations of 0–250 μM) or typical inhibitors for 5 min. The concentrations and probe substrates were selected as follows: 0.1 μM [3-H]MPP^+ (for OCT1 and OCT2), 0.1 μM [3-H]PAH (for OAT1), 0.1 μM [3-H]ES (for OAT3 and OATP1B1), and 0.1 μM [3-H]EG (for OATP1B3).
(§1) 12.5 (Systat Software, Inc.; San Jose, CA, USA). […] 1.1 (Systat Software, Inc.).

For the next series, the target named is T2, BCRP (Homo sapiens, UniProt Q9UNQ0).
T2 sequence (Q9UNQ0 1-655): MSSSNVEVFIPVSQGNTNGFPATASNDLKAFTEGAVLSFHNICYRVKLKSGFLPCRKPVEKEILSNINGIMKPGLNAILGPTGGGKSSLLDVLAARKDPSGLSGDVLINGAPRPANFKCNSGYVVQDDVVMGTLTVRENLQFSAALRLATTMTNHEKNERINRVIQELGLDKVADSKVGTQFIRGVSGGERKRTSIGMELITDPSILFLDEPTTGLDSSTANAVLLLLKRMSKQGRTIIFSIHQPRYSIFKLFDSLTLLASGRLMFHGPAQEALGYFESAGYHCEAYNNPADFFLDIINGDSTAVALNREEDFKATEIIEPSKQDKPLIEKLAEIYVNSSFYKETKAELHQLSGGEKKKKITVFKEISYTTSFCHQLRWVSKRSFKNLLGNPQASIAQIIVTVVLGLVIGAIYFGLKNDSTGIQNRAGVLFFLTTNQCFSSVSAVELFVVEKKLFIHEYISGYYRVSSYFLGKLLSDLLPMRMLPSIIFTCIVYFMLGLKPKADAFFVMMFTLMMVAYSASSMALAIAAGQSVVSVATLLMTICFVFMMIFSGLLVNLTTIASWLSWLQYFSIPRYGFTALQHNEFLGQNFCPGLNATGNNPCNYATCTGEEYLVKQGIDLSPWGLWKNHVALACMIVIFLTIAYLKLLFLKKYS
Put plainly: B to A transport of [3-H]estrone-3-sulfate in LLC-PK1-BCRP cells. It counts as in vitro ADME. The conditions noted are these: human, LLC-PK1-BCRP cell monolayers on filter membranes, probe [3H]estrone-3-sulfate (0.1 μM), B to A transport.

The next series deals with UGT1A6 (Homo sapiens, UniProt P19224). Description: Inhibition of UGT1A6-catalyzed N-acetylserotonin glucuronidation in human liver microsomes. The procedure:
The inhibitory effect of APINACA and typical UGT inhibitors on UGT1A1, UGT1A3, UGT1A4, UGT1A6, UGT1A9, and UGT2B7 were evaluated following our previous method by LC–MS/MS after incubation of ultrapooled human liver microsomes with a cocktail of UGT substrates. […] The reactions were initiated by adding UDPGA, and the incubation continued for 60 min at 37 °C in a shaking water bath. The reactions were terminated by adding 50 μL of ice-cold acetonitrile containing internal standards (propofol glucuronide for chenodeoxycholic acid 24-acyl-β-glucuronide and mycophenolic acid glucuronide; and meloxicam for SN-38 glucuronide, trifluoperazine glucuronide, N-acetylserotonin β-D-glucuronide, and naloxone 3-β-D-glucuronide). The incubation mixtures were centrifuged at 13,000× g for 8 min at 4 °C. Next, 50 μL of each supernatant of A and B set was mixed, and aliquots (5 μL) were analyzed by LC–MS/MS. All assays were performed in triplicate, and the average values were used in calculations.
To measure the time-dependent inhibition, human liver microsomes were preincubated with the various concentrations of APINACA (final concentrations of 0.1–100 μM) and UDPGA for 30 min at 37 °C. Next, the reaction mixtures were incubated with UGT probe substrate cocktail sets for 60 min at 37 °C. The control reaction was performed by adding methanol instead of the test compounds.
1.1 (Systat Software, Inc.).

In the next series the target is CYP2C9 (Homo sapiens, UniProt P11712). Put plainly: Inhibition of CYP2C9-catalyzed diclofenac 4′-hydroxylase in ultrapooled human liver microsomes. It counts as in vitro ADME. The conditions noted are these: CYP2C9 diclofenac 4′-hydroxylase. The procedure: The inhibitory potentials (IC50 values) of APINACA and typical CYP inhibitors on CYP 1A2, 2A6, 2C8, 2C9, 2C19, 2D6, and 3A4 activities in pooled human liver microsomes were evaluated following our previous method using a cocktail of CYP substrates, followed by LC–MS/MS [43]. […]. After 3 min of preincubation at 37 °C, the reaction mixtures were incubated for 15 min at 37 °C with the addition of NADPH in a shaking water bath. The reaction was stopped by adding 100 μL of ice cold methanol containing internal standards (d9-1′-hydroxybufuralol for 1′-hydroxybufuralol, 4′-hydroxydiclofenac, 7-hydroxycoumarin, 1′-hydroxymidazolam, and 4′-hydroxymephenytoin; ^13C2, ^15N-acetaminophen for acetaminophen and N-desethylamodiaquine). […] Aliquots (5 μL) of the diluted supernatants were analyzed by LC–MS/MS.
CYP2C9, sequence (P11712 whole entry): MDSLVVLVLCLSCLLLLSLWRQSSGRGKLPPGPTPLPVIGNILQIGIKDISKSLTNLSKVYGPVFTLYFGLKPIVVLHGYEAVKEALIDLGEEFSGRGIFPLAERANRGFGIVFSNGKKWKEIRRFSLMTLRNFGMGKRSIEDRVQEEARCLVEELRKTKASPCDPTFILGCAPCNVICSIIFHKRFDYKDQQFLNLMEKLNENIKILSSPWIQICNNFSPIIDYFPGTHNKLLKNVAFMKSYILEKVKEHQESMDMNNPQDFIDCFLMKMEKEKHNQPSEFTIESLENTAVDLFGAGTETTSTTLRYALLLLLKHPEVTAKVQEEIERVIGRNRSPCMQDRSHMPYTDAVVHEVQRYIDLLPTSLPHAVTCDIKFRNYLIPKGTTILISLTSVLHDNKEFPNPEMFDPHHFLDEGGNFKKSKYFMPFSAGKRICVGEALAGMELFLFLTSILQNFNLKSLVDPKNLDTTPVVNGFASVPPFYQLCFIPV
Next, the reaction mixtures were incubated with a seven-CYP probe substrate cocktail or bupropion for 15 min at 37 °C.
The LC-MS/MS system was comprised of an Agilent 6495 triple quadrupole mass spectrometer coupled with an Agilent 1290 Infinity system (Agilent Technologies, CA, USA). The column and autosampler temperatures were 40 °C and 4 °C, respectively.
The data were processed using Mass Hunter software (Agilent Technologies).
as §1
For orientation: Liver microsomes are a subcellular fraction often used to study metabolism.

As a reminder, the IC50 is the concentration that gives 50% inhibition.

UGT1A6, sequence (P19224 27-532): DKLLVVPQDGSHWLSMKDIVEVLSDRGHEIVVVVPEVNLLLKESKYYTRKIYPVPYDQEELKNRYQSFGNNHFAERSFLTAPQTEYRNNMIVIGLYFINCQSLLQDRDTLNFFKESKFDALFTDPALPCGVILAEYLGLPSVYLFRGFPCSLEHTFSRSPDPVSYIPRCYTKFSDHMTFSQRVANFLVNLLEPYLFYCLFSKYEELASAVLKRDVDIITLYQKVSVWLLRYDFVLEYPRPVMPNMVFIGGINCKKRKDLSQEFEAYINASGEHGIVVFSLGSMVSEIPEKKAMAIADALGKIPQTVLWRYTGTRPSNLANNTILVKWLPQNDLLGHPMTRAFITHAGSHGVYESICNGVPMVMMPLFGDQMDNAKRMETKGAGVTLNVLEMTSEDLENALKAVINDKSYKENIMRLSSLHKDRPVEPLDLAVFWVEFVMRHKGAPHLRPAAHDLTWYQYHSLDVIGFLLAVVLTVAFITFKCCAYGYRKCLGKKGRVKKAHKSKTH

As to `CCCCCn1nc(C(=O)NC23CC4CC(CC(C4)C2)C3)c2ccccc21` [APINACA, N-(1-adamantyl)-1-pentyl-1H-indazole-3-carboxamide], the IC50 was above 250 µM against OATP1B1; above 100 µM against BCRP; above 100 µM on UGT1A6; above 100 µM at UGT1A6 (read-out: IC50 UGT1A6 N-acetylserotonin glucuronidation, with 30-min preincubation, pooled human liver microsomes, 30-min preincubation with UDPGA (○)); above 100 µM against CYP2C9 (IC50 (μM) No Preincubation, 10 μM diclofenac, no preincubation); 85 µM on CYP2C9 (IC50 (μM) With Preincubation, 30-min preincubation with NADPH). In addition, the half-inhibitory concentration (IC50) at 15 min against CYP2C9 (human, microsomes, pH 7.4, IC50 (μM) With Preincubation, 30-min preincubation with NADPH) is above 100 µM.
